In ChEMBL document CHEMBL1201862, “PubChem BioAssay data set” (2004):
Active and inactive are the calls of the source. Cut-off read from the data, not from the text of the source: actives have a measured IC50 and inactives only a lower limit.

Target: Envelope glycoprotein gp160 (Human immunodeficiency virus 1, UniProt Q6QLK5)
Assay: inhibitors of HIV fusion peptide binding, primary screen, biochemical, uHTS, fluorescence dequenching (AID 1986)

Sequence of Envelope glycoprotein gp160 (Q6QLK5 whole entry, the tested form may be a part): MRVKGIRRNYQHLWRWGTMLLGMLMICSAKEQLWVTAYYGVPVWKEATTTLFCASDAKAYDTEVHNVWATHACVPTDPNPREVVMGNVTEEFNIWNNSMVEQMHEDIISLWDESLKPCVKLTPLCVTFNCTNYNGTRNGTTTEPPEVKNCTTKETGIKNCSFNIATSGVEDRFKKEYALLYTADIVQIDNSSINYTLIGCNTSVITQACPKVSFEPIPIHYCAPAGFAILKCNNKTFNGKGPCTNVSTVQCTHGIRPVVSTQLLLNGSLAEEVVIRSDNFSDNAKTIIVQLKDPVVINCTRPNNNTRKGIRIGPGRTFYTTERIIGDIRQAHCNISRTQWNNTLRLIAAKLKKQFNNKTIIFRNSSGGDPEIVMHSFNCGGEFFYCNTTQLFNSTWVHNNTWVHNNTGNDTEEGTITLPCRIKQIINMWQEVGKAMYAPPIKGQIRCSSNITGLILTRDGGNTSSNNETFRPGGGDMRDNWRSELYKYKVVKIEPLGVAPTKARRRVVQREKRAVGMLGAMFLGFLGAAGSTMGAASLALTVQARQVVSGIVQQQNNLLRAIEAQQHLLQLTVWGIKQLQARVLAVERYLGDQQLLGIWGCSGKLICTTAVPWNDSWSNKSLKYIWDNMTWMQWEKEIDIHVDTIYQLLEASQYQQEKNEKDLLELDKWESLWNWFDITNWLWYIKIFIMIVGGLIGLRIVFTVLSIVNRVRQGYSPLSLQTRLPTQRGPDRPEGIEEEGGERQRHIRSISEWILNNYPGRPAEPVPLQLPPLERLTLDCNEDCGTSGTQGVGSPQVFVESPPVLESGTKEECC

Cc1ccc(/C=C2\SC(=S)N(CCCC(=O)Nc3ccccc3C(=O)O)C2=O)cc1
IC50: 27.8 µM (active)

CS(=O)(=O)C1=NSC2=NC(=O)/C(=C\c3ccc(OC(=O)c4ccco4)c(Br)c3)C(=N)N21
IC50: 16 µM (active)
